Source: patent US10646478B2, “Methods for treatment of melanoma” (CHILDREN'S MEDICAL CENTER CORPORATION, priority 2011, dated 2020)

How the values were obtained:
[1] = 100 mg daily for 3 days, then 20 mg per day; cited from earlier work
CYP450 isoenzymes = conditions: parent compound and active metabolite; cited from earlier work
[2] = test system: crestin+ neural crest progenitors; assay: In situ hybridization (ISH) for crestin in zebrafish embryos (chemical screen for suppressors of neural crest development); type: in vivo; conditions: for crestin expression by ISH: zebrafish embryos, 50% epiboly to 24 hpf
Procedure: The screen was performed essentially as previously described^31. In brief, WT embryos were collected, staged and then plated at a density of 10 embryos per well in a […] tissue culture plate in 200 ul of E3 water. At 50% epiboly, 100 ul of a 3× chemical stock was added to each well using a Hamilton liquid handling robot, yielding a final 1× concentration. For the majority of the chemicals in the library, this yielded a concentration of ˜33 uM. The libraries used were the BIOMOL 480, Sigma LOPAC 1280, and selected additional compounds obtained through the Children's Hospital Boston Chemical Screening facility. Compounds known to affect pigmentation in Xenopus were obtained from a screen previously described^32, 33. After treatment, embryos were rinsed in E3 water, pronase treated to remove chorions, washed 4× in E3 and 1× in PBT, and then fixed in 4% PFA for 24 hours. Fixed embryos were changed to 100% methanol 24 h later, and kept until the time of ISH.
Embryos underwent automated ISH using a Biolane HTI robot with a crestin riboprobe as previously described^31. All wells were manually scored by eye, assigning a score within a range of 1 (no crestin staining) to 3 (no change in crestin) to 5 (marked increase in crestin). Note was also taken of chemicals that affected migratory patterns in both A-P and D-V directions, and overall morphology. […] All hits were validated in larger, independent clutches of 100-200 embryos using chemicals obtained from independent suppliers.

[3] = test system: gene expression (123-gene melanoma signature); assay: Microarray analysis of leflunomide treated zebrafish embryos; type: in vivo
[4] = test system: human melanoma cell lines (A375, Hs.294t, RPMI7951); assay: In vitro melanoma proliferation assay (CellTiterGlo); type: cell-based; conditions: A375, Hs.294t, RPMI7951; CellTiterGlo
Procedure: Human melanoma cell lines (A375, RPMI7951, Hs.294T, MAMLE-3M) were obtained from the American Type Culture Collection. The 8988 cell line was provided by Alec Kimmelman at Dana Farber, and the PANC1 and MDA-231-MB lines were provided by Rania Hartouche at Harvard. Cells were cultured in DMEM/10% FCS at 37 C, 5% CO2. For proliferation assays, 96-well clear bottom plates were used to plate cells at a density of 5,000 cells/well (RPMI7951 and A375) or 10,000 cells/well (MAMLE-3M-3M and Hs.294T) in 100 ul containing indicated concentrations of A771726 or PLX4720 or DMSO. All conditions were tested in triplicate. Media was changed at day 2, and proliferation rate was measured at day 4 using the CellTiterGlo assay kit (Promega). All values are expressed are the % of luciferase relative to the DMSO control well. Differences between groups were statistically analyzed using a generalized linear ANOVA model taking into account factors of PLX4720, A771726 and dose. IC50's were calculated using a log-logistic model.

[5] = arthritis patients; cited from earlier work
neural crest derivatives = assay: Zebrafish neural crest assay (melanocytes, mitf-GFP, iridophores, mbp-mCherry glia, jaw cartilage); type: in vivo
Description: The mitf-GFP transgenic was scored at 24 hpf, as this is the point of maximal GFP intensity.

M481 cells = assay: Cell viability of primary human melanoma cells M481; type: cell-based; conditions: FIG. 28a
Description: FIG. 28a, M481 cells. FIG. 28b, A375 cells. FIG. 28c, M405 cells. FIG. 28d, M528 cells. FIG. 28e, M715 cells.

A375 cell line = assay: Microarray analysis of A375 cells treated with leflunomide; type: cell-based, human; conditions: 25 uM, 3 days
Procedure: Expression analysis was performed using Illumina WG6 v3 arrays, and the data was analyzed using Illumina Genome Studio.

[6] = test system: M481 primary human melanoma xenografts; assay: M481 primary human melanoma xenografts in mice; type: in vivo, mouse; conditions: in combination with Plexicon
[7] = test system: 5' and 3' transcripts of mitf, dlb, beta-actin; assay: 5'-3' transcriptional elongation assay (qRT-PCR on whole embryos); type: in vivo, zebrafish
Procedure: Primers were designed to the noted genes, situated at the very 5′ end or 3′ end of the gene, situated in the UTR if annotated. qRT-PCR was then performed using SYBR Green, and each primer pair was normalized to an average of the Ct value for the 5′ beta-actin and 3′ beta-actin primers. Fold-change was calculated using the delta-delta Ct method, and all values are expressed relative to the DMSO control, after log 2 transformation. Differences between groups were assessed using t-tests. Primer sequences available upon request.

[8] = 6.5 uM, 24 hpf, relative to DMSO

Cc1oncc1C(=O)Nc1ccc(C(F)(F)F)cc1 [leflunomide]
steady-state concentration [1]: approximately 60 mcg/mL | metabolism by CYP450 isoenzymes (CYP450 isoenzymes): Neither the parent compound nor the active metabolite is metabolized by CYP450 isoenzymes | ability to inhibit neural crest development (rank order of effect) ([2]; Example III, different concentrations, crestin ISH): approximately the same as compounds 5 and 6 | crestin expression by ISH [2]: reduction in expression of the neural crest | crestin expression by ISH ([2]; listed as Leflunomide): phenocopied NSC210627 | number of genes upregulated ([3]; 6.5 uM, 50% epiboly to 24 hpf, 2-fold): 60 genes | genes upregulated in the 123-gene melanoma signature that are downregulated ([3]; leflunomide treated embryos): 49% | proliferation of human melanoma cell lines [4]: dose-dependent decrease in melanoma proliferation | treatment-related adverse event more prevalent than with placebo [5]: elevation of liver transaminase | microphthalmia (neural crest derivatives; 2.5 uM from 5-72 hpf): microphthalmia was induced | reflective iridophores on the surface of the eye (neural crest derivatives; 2.5 uM from 5-72 hpf): reduction of reflective iridophores on the surface of the eye | mitf-GFP+ cells (neural crest derivatives; 24 hpf): nearly complete loss of mitf-GFP+ cells | pigmented melanocytes (neural crest derivatives; 36-48 hpf): devoid of pigmented melanocytes | jaw cartilage (neural crest derivatives; 72 hpf): jaw cartilage disruption | myelin basic protein (mbp)-mCherry glial cells (neural crest derivatives; 72 hpf): reduction of myelin basic protein (mbp)-mCherry glial cells | cell survival of M481 cells (M481 cells): impair cell survival | gene expression in A375 (microarray) (A375 cell line): downregulation of genes required for neural crest development | tumor volume [6]: more effective when used in combination with Plexicon | dlb 3′ transcript abundance [7, 8]: 0.74+/−0.07 fold | dlb 5′ transcript abundance [7, 8]: 1.13+/−0.14 fold | mitf 3′ transcript abundance [7, 8]: 0.39+/−0.07 fold | mitf 5′ transcript abundance [7, 8]: 3.75+/−1.19 fold | beta-actin 3′ transcript abundance ([7]; control gene, 6.5 uM, 24 hpf): 0.99+/−0.06 fold | beta-actin 5′ transcript abundance ([7]; control gene, 6.5 uM, 24 hpf): 1.03+/−0.07 fold | 3′ transcription of mitf, pvalb2, her4.2 and dlb ([7]; leflunomide vs. DMSO): significant decrease in 3′ transcription
